In US20020107250A1, “Rapid-onset formulation of a selective cyclooxygenase-2 inhibitor” (priority 2000, published 2002):

Assay: Solubility of celecoxib and valdecoxib in various solvent liquids
Assay type: physicochemical
Procedure: Aliquots of a solvent liquid were then added dropwise in approximately 100 mg increments to the solid sample. The resulting mixture was vortexed and/or sonicated between aliquot additions. […] Solubility values preceded by the<symbol denote that, at the particular concentration shown, the mixture was still cloudy, i.e., not all of the drug was fully in dissolved form.

SMILES | Solubility in a DGME/water mixture compared with a PEG-400/water mixture (same ratio of mixture ingredients) | Solubility (solvent liquid: Capmul MCM (caprylic/capric mono- and diglycerides)) [mg/g] | Solubility (solvent liquid: Labrasol/DGME/propylene glycol laurate 40:40:20 w/w) [mg/g] | Solubility (solvent liquid: Labrasol/DGME/propylene glycol laurate 45:45:10 w/w) [mg/g] | Solubility (solvent liquid: Miglyol 812 (caprylic/capric triglycerides)) [mg/g] | Solubility (solvent liquid: Tagat TO (polyoxyethylene glyceryl trioleate)) [mg/g] | Solubility (solvent liquid: Tagat TO/Capmul MCM 1:1 w/w) [mg/g] | Advantage in solubility for DGME over propylene glycol (DGME versus propylene glycol) | Solubility (solvent liquid: polyethylene glycol 400) [mg/g] | Solubility (solvent liquid: propylene glycol) [mg/g]
Cc1ccc(-c2cc(C(F)(F)F)nn2-c2ccc(S(N)(=O)=O)cc2)cc1 [celecoxib, 4-[5-(4-methylphenyl)-3-(trifluoromethyl)-1H-pyrazol-1-yl]benzenesulfonamide] | significantly higher | 19 to 21 | 288 to 297 | 313 to 325 | 6 to 12 | 24 to 40 | 34 to 52 |  |  | 
Cc1onc(-c2ccccc2)c1-c1ccc(S(N)(=O)=O)cc1 [valdecoxib, 4-[5-methyl-3-phenylisoxazol-4-yl]benzenesulfonamide] |  |  |  |  |  |  |  | approximately tenfold advantage in solubility | 50 to 85 | 10 to 20
